Data on 2 molecules can be found in publication PMC9352556, “Glycogen synthase kinase homolog Rim11 regulates lipid synthesis through the phosphorylation of Pah1 phosphatidate phosphatase in yeast” (The Journal of Biological Chemistry, 2022).

One data set concerns the target T1, Pah1 (Saccharomyces cerevisiae, UniProt P32567).
T1 construct: unphosphorylated
T1 sequence (P32567 1-862): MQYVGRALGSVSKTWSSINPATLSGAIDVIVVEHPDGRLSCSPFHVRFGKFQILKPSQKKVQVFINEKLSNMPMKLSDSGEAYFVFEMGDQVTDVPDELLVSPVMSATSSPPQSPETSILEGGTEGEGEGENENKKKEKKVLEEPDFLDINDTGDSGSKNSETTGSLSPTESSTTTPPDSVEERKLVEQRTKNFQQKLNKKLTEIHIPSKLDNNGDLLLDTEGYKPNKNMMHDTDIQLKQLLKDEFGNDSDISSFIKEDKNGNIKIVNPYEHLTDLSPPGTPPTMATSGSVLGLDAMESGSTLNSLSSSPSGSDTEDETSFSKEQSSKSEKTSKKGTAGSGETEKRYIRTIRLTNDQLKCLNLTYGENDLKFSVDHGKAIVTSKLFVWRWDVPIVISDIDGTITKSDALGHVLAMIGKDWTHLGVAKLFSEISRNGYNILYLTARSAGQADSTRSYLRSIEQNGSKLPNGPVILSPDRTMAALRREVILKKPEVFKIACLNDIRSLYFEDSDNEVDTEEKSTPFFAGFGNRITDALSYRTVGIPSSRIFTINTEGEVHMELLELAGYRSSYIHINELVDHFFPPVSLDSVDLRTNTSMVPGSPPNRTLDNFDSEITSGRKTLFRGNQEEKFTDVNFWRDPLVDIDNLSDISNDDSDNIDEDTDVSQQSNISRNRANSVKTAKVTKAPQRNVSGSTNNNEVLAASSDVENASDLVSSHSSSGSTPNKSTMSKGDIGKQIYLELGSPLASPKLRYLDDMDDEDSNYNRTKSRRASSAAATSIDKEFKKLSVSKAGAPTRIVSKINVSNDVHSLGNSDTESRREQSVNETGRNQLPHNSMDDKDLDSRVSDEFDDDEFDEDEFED
Kind of data set: release of […] from […]PA, Triton X-100/PA mixed micelles. Type of data set: biochemical. To be noted: unphosphorylated Pah1; surface concentration of PA in micelles; cooperative, n = 3.4; 1 mM MgCl2, pH 7.5, 30 °C; labelled compound.

Substrate in the data set “purified protein”: Nc1ncnc2c1ncn2[C@@H]1O[C@H](COP(=O)(O)OP(=O)(O)OP(=O)(O)O)[C@@H](O)[C@H]1O
Kind of data set: purified protein. To be noted: co-substrate 0.25 μM E. coli-expressed Pah1, 10 mM MgCl2, pH 7.5, 30 °C, labelled compound. It counts as biochemical, Saccharomyces cerevisiae.

Consider phosphatidate, for which the Km on Pah1 was determined as 4.2 mol %.

B1: Rim11 (Saccharomyces cerevisiae S288C) (protein)
chain: MNIQSNNSPNLSNNIVSKQVYYAHPPPTIDPNDPVQISFPTTEVVGHGSFGVVFATVIQETNEKVAIKKVLQDKRFKNRELEIMKMLSHINIIDLKYFFYERDSQDEIYLNLILEYMPQSLYQRLRHFVHQRTPMSRLEIKYYMFQLFKSLNYLHHFANVCHRDIKPQNLLVDPETWSLKLCDFGSAKQLKPTEPNVSYICSRYYRAPELIFGATNYTNQIDIWSSGCVMAELLLGQPMFPGESGIDQLVEIIKILGTPSKQEICSMNPNYMEHKFPQIKPIPLSRVFKKEDDQTVEFLADVLKYDPLERFNALQCLCSPYFDELKLDDGKINQITTDLKLLEFDENVELGHLSPDELSSVKKKLYPKSK
notes: purified from S. cerevisiae (pSK001, pYES2); endogenously phosphorylated (Tyr199)
As to B1, the Km in “purified protein” is 30 µM.
